Results as given in paper PMC6359543, “Efficacy of Azatyrosine-Phenylbutyric Hydroxamides, a Histone Deacetylase Inhibitor, on Chemotherapy-Induced Gastrointestinal Mucositis” (International Journal of Molecular Sciences, 2019).

Tests used:
[1] = tested on: Salmonella typhimurium TA102; conditions: Positive Control: 2-aminoanthrene 5 µg /plate
Procedure: Five strains of Salmonella typhimurium, TA98, TA102, TA100, TA1537, and TA1535, were obtained from Moltox (Boone, NC, USA). Mutagenicity was evaluated by the incorporation method in the presence or absence of S9 metabolic activation. A volume of 100 µL of each test bacterial culture (10^9 cells/mL), 2 mL soft agar (0.6% agar, 0.5% NaCl, 5 mM histidine, and […], pH 7.4, 40–50 °C), 0.5 mL S9 mixture (if necessary), and AzP were mixed well in a test tube. […] The revertant colonies were counted, and a positive mutagenic response was identified when (i) the number of revertants was at least double the spontaneous yield; (ii) a statistical significance (p ≤ 0.05) was found; and (iii) a reproducible positive dose response was present.

[2] = tested on: Salmonella typhimurium TA1535; format: cell-based
[3] = tested on: Salmonella typhimurium TA1537; assay: Salmonella/microsome reversion assay (Ames test), TA1537; format: cell-based
[4] = tested on: Salmonella typhimurium TA100; format: cell-based
[5] = tested on: Salmonella typhimurium TA98; assay: Salmonella/microsome reversion assay (Ames test), TA98; format: cell-based; conditions: Positive Control: 4-Nitro-o-phenylenediamine 2.5 µg / plate
male ICR mice = assay: Micronucleus test; conditions: Cyclophosphamide 200 mg/kg
Procedure: Male ICR mice (n = 5) were administered AzP orally by gavage, at doses of 5, 50, and 500 mg/kg body weight. […] At 24, 48, and 72 h after dosing, 2-μL blood samples were collected from the tail vein onto a slide stained with acridine orange (40 μg/mL). The ratio (%) of polychromatic erythrocytes (PCEs) to total erythrocytes was determined using fluorescence microscopy. In addition, the frequency of micronucleated polychromatic erythrocytes (MNPCEs; ‰) was counted to a total of 1000 erythrocytes or PCEs per animal.

[6] = tested on: Chinese Hamster Ovary cells (CHO-K1); assay: Chromosome aberration assay; format: cell-based; conditions: Mitomycin C 1µg/mL
Procedure: Chinese hamster ovary epithelial cells (CHO-K1, American Type Culture Collection, Manassas, VA, USA) were cultured in 6-cm dishes at a density of 2 × 10^5 cells/mL for chromosomal abnormality analysis. […] Colemid (0.1 μg/mL) was administered 3 h before trypsinization, followed by treatment with 0.9% sodium citrate at 37 °C and Carnoy’s solution (methanol:acetic acid, 3:1). The cells were stained with 3% Giemsa solution in 0.07 M phosphate buffer (pH 6.8) on glass slides. […] The data were expressed as the total mean number of chromosomal aberrations per treatment ± standard deviation (SD) from three independent experiments.

C57BL/6 mice = conditions: mouse, in vivo, ip, 11 mg/kg
IEC-6 cells = assay: LPS-induced MAPK/Akt phosphorylation in IEC-6 cells (Western blot); format: cell-based, Rat; conditions: LPS 500 ng/mL, 10 min
Procedure: Figure 6 Western blotting of IEC-6 cells treated with LPS and/or AzP. (A) IEC-6 cells (1 × 10^6 cells/mL) were dispensed on 6 cm dishes and (A) treated with LPS (500 ng/mL) for 10, 20, 30, 60, and 90 min. Data expressed as means ± SD from 3 independent experiments. * p < 0.05 as compared with the resting. (B) Treatment with LPS (500 ng/mL) for 10 min as indicated. Cells were treated with the indicated concentrations of AzP (5, 10, and 20 μM) or vehicle for 30 min before treatment with LPS. Cell lysates were collected for Western blot targeting p-ERK phosphorylation (Thr202/Tyr204, B), MEK phosphorylation ([…], C), and Akt phosphorylation (Ser473, D). Data expressed as means ± SD from 3 independent experiments. ### p < 0.001 as compared with the resting, * p < 0.05, ** p < 0.01 and *** p < 0.001 as compared with the vehicle.
IEC-6 cells were incubated in different AzP concentrations with/without LPS stimulation for 24 h. The homogenate from cells or tissues was then centrifuged at 14,000× g for 10 min at 4 °C and the supernatant was collected. Protein separation was performed using 10% reducing SDS-PAGE, electrotransferred onto polyvinylidene difluoride (PVDF), and immunoblotted with antibodies against inflammatory proteins as well as β-actin as control. Densitometry was performed using BioLight software V2000.01 (Uhldingen-Mühlhofen, Germany). The optical density of specific protein was normalized to an internal control and expressed as a ratio to control.

[7] = Positive Control: 2-aminoanthrene 5 µg /plate
[8] = 3 hours without S9 metabolic activation
[9] = 24 hours without S9 metabolic activation
[10] = Positive Control: Sodium Azide 5 µg / plate

Nc1ccc2cc3ccccc3cc2c1 [2-aminoanthrene, reference compound]
Revertant colonies per plate (+S9) TA102 [1]: 1409.8±78.2
Revertant colonies per plate (+S9) TA1535 [2, 7]: 1182.9±81.6
Revertant colonies per plate (+S9) TA1537 [3, 7]: 1282.8±109
Revertant colonies per plate (+S9) TA100 [4, 7]: 1514.7±6.9

Nc1ccc([N+](=O)[O-])cc1N [4-Nitro-o-phenylenediamine, reference compound]
Revertant colonies per plate (-S9) TA98 [5]: 1549.3±37.6

Nc1c2ccccc2nc2ccccc12 [9-Aminoacridine, reference compound]
Revertant colonies per plate (-S9) TA1537 ([3]; Positive Control: 9-Aminoacridine 50 µg /plate): 1671.8±184

O=P1(N(CCCl)CCCl)NCCCO1 (stereo not drawn) [Cyclophosphamide, reference compound]
Reticuloctes(%) (male ICR mice; Day 1): 1.60±0.12 %
Reticuloctes(%) (male ICR mice; Day 2): 0.93±0.07 %
Reticuloctes(%) (male ICR mice; Day 3): 1.07±0.16 %

CO[C@@]12[C@H](COC(N)=O)C3=C(C(=O)C(C)=C(N)C3=O)N1C[C@@H]1N[C@@H]12 [Mitomycin C, reference compound]
Aberrant cell (%) With gap [6, 8]: 7.67±1.15 %
Number of cells with structural aberrations (%) B: chromosome break [6, 8]: 0.00±0.00%
Number of cells with structural aberrations (%) G: chromosome gap [6, 8]: 0.00±0.00%
Number of cells with structural aberrations (%) e: exchange [6, 8]: 2.00±1.00 %
Aberrant cell (%) With gap [6, 9]: 10.00±1.73 %
Number of cells with structural aberrations (%) B: chromosome break [6, 9]: 0.00±0.00%
Number of cells with structural aberrations (%) G: chromosome gap [6, 9]: 0.00±0.00%
Number of cells with structural aberrations (%) e: exchange [6, 9]: 4.33±2.52 %

[N-]=[N+]=[N-].[Na+] [Sodium Azide, reference compound]
Revertant colonies per plate (-S9) TA1535 [2, 10]: 1506.7±62.3
Revertant colonies per plate (-S9) TA100 [4, 10]: 1433.6±94.4

N.N.[Cl][Pt][Cl] [cisplatin, reference compound]
Relative mean body weight (day 0 = 100%) (C57BL/6 mice): 76.0 ± 4.7%

lipopolysaccharide [LPS, reference compound]
ERK phosphorylation compared to the control (IEC-6 cells): 1.8 ± 0.3 fold
